Experimental data from article PMC7037732, “Synthesis of Combretastatin A-4 and 3′-Aminocombretastatin A-4 derivatives with Aminoacid Containing Pendants and Study of their Interaction with Tubulin and as Downregulators of the VEGF, hTERT and c-Myc Gene Expression” (Molecules, 2020).

Key:
[1] = system: HT-29 (human colon adenocarcinoma); test: Inhibition of cell proliferation (MTT), HT-29; assay type: cell-based; settings: Table 2, 48 h of treatment (footnote), average ±SD of three experiments
[2] = system: HEK-293 (human embryonic kidney cells); test: Inhibition of cell proliferation (MTT), nontumor HEK-293; assay type: cell-based; settings: Table 2, 48 h of treatment (footnote), average ±SD of three experiments
A-549 cells = test: Cell cycle distribution by flow cytometry; assay type: cell-based, human; settings: A-549, 24 h
Method in brief: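 A-549 cells were harvested, fixed in cold 70% ethanol (30 min, −20 °C), then stained with 50 µg/mL propidium iodide plus 100 µg/mL RNase A in PBS for 20 min at room temperature in the dark. Flow cytometry used 488 nm excitation and 620 nm emission, giving the percentage of cells in G2/M.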

hTERT gene = hTERT gene expression by RT-qPCR in HT-29 cells; assay type: cell-based, human; settings: Homo sapiens, HT-29, 48 h, control 100; for mrna remaining at 0.007 µM: 7 nM; for mrna remaining at 0.004 µM: 4 nM
Protocol: The effect on the expression of VEGF, hTERT and c-Myc genes has been studied for CA-4 and its derivatives that show selectivity indexes higher than 0.9 on the HT-29 cell line. The studied derivatives, together with the concentrations to which they have been tested, are CA-4 (15 μM); 4.1 (Gly, 5 μM); 4.5 (L-Pro, 25 μM); 4.9 (L-Met, 25 μM); 6.2 (D-Leu, 25 μM); 6.3 (D-Phe, 25 μM); 6.4 (D-Pro, 25 μM) and 6.5 (D-Ser, 10 μM). The expression of the genes was determined by RT-qPCR methodology, as described in the Materials and Methods section.
As regards AmCA-4 derivatives, the effect on the expression of the VEGF, hTERT and c-Myc genes has been studied on those that show IC50 in the low nanomolar range on the HT-29 cell line and/or on compounds whose selectivity indexes with respect to this cell line are higher than 1. The studied compounds, together with the concentrations to which they have been tested, are: CA-4 (15 μM), AmCA-4 (15 nM), 7.1 (7 nM), 7.2 (1.5 nM), 7.3 (4 nM), 7.4 (15 nM), 7.5 (2 nM), 7.7 (7 nM), 7.8 (15 nM), 7.9 (30 nM), 8.1 (7 nM), 8.2 (3 nM), 8.3 (10 nM), 8.4 (1.5 nM), 8.5 (4 nM), 8.7 (7 nM), 8.8 (3 nM) and 8.9 (4 nM).
HT-29 cells at 70–80% confluence were collected, and 1.5 × 10^5 cells were placed in a six-well plate in 1.5 mL of the medium. After 24 h, cells were incubated with the corresponding compounds for 48 h. Cells were collected, and the total cellular RNA from the HT-29 cells was isolated using an Ambion RNA Extraction Kit, according to the manufacturer’s instructions. The cDNA was synthesized by MMLV-RT with […] of extracted RNA and oligo(dT)15, according to the manufacturer’s instructions. Genes were amplified by a thermal cycler and StepOnePlus™ TaqMan® probes. TaqMan® Gene Expression Master Mix Fast, containing the appropriate buffer for the amplification conditions, dNTPs, thermostable DNA polymerase enzyme and a passive reference probe, was used. To amplify each of the genes, the predesigned primers sold by Life Technologies TaqMan® Gene Expression Assays Hs99999903-m1 (β-actin), Hs00900055-m1 (VEGF), Hs00972646-m1 (hTERT) and Hs00153408-m1 (c-Myc) were used.

[3] = concentration per compound as in Tables 6 and 7

| SMILES | IC50 ([1]; Homo sapiens, HT-29, 48 h) [nM] | IC50 ([2]; Homo sapiens, HEK293, 48 h) [nM] | mrna remaining at 0.007 µM (hTERT gene) [%] | G0/G1 (A-549 cells; 2 µM) [%] | G2/M (A-549 cells; 2 µM) [%] | S (A-549 cells; 2 µM) [%] | IC50 [1] [nM] | IC50 [2] [nM] | also measured |
| --- | --- | --- | --- | --- | --- | --- | --- | --- | --- |
| COc1ccc(/C=C\c2cc(OC)c(OC)c(OC)c2)cc1NC(=O)CNC(=O)OCC1c2ccccc2-c2ccccc21 [Compound 7.1] | 7 ± 4 | 3.5 ± 1.9 | < 70 | – | – | – | – | – | G0/G1 (A-549 cells; 0.5 µM): 28 ± 1%; G2/M (A-549 cells; 0.5 µM): 54 ± 1%; S (A-549 cells; 0.5 µM): 18 ± 2% |
| COc1ccc(/C=C\c2cc(OC)c(OC)c(OC)c2)cc1NC(=O)[C@H](Cc1ccccc1)NC(=O)OCC1c2ccccc2-c2ccccc21 [Compound 7.5] | 8 ± 3 | 2.3 ± 2 | – | 34 ± 2 | 46 ± 3 | 20 ± 1 | – | – | mrna remaining at 0.002 µM (hTERT gene; 2 nM): < 70% |
| COc1ccc(/C=C\c2cc(OC)c(OC)c(OC)c2)cc1NC(=O)[C@H](CCSC)NC(=O)OCC1c2ccccc2-c2ccccc21 [Compound 7.9] | 33 ± 20 | 8 ± 4 | – | 72 ± 2 | 10 ± 3 | 18 ± 1 | – | – | Effect on the cell cycle (A-549 cells; [3]): do not accumulate a high percentage of cells in phase G2/M; mrna remaining at 0.03 µM (hTERT gene; 30 nM): 77% |
| COc1ccc(/C=C\c2cc(OC)c(OC)c(OC)c2)cc1NC(=O)CN [Compound 8.1] | 10 ± 2 | 10 ± 2 | > 100 | 32 ± 5 | 46 ± 4 | 22 ± 2 | – | – | – |
| COc1ccc(/C=C\c2cc(OC)c(OC)c(OC)c2)cc1NC(=O)[C@H](C)N [Compound 8.2] | < 5 | < 5 | – | – | – | – | 3 ± 0.3 | 4 ± 0.1 | G0/G1 (A-549 cells; 3 µM): 28 ± 1%; G2/M (A-549 cells; 3 µM): 58 ± 5%; S (A-549 cells; 3 µM): 14 ± 4%; mrna remaining at 0.003 µM (hTERT gene; 3 nM): 74% |
| COc1ccc(/C=C\c2cc(OC)c(OC)c(OC)c2)cc1NC(=O)[C@@H](N)C(C)C [Compound 8.3] | 13.3 ± 0.5 | 7.6 ± 0.3 | – | 65 ± 2 | 15 ± 2 | 20 ± 1 | – | – | Effect on the cell cycle (A-549 cells; [3]): do not accumulate a high percentage of cells in phase G2/M; mrna remaining at 0.01 µM (hTERT gene; 10 nM): < 70% |
| COc1ccc(/C=C\c2cc(OC)c(OC)c(OC)c2)cc1NC(=O)[C@@H](N)Cc1ccccc1 [Compound 8.5] | < 5 | < 5 | – | – | – | – | 4.4 ± 2.5 | 3.5 ± 1.9 | G0/G1 (A-549 cells; 0.5 µM): 46 ± 2%; G2/M (A-549 cells; 0.5 µM): 26 ± 10%; S (A-549 cells; 0.5 µM): 28 ± 11%; mrna remaining at 0.004 µM (hTERT gene): 98% |
| COc1ccc(/C=C\c2cc(OC)c(OC)c(OC)c2)cc1NC(=O)[C@@H](N)C(C)O (stereo partly drawn) [Compound 8.7] | 8 ± 2 | 14 ± 3 | 81 | 31 ± 1 | 51 ± 2 | 18 ± 1 | – | – | cells accumulated in the G2/M phase (A-549 cells; concentration per compound as in Tables 6 and 7, control 14%): more than 50% |
| COc1ccc(/C=C\c2cc(OC)c(OC)c(OC)c2)cc1NC(=O)[C@@H](N)CCSC [Compound 8.9] | < 5 | < 5 | – | – | – | – | 4.9 ± 0.1 | 3.7 ± 0.3 | G0/G1 (A-549 cells; 0.2 µM): 30 ± 1%; G2/M (A-549 cells; 0.2 µM): 51 ± 2%; S (A-549 cells; 0.2 µM): 19 ± 1%; mrna remaining at 0.004 µM (hTERT gene): 71% |
